Results reported in paper PMC6235670, “An mTOR Signaling Modulator Suppressed Heterotopic Ossification of Fibrodysplasia Ossificans Progressiva” (Stem Cell Reports, 2018).

What was measured:
[1] = tested on: C57BL/6 mice; assay: Growth plate histology and normal bone µCT in compound-administered BMP-7-injected mice; conditions: 5 mg/kg i.p., 2 weeks
Procedure: MTOR s604 […]tt […]at […]
System Engineering) according to the manufacturer's instructions. […]
BMP-7-induced HO model mice. BMP -7 (2 µ g/mouse) was injected into the right gastrocnemius muscle of C57BL/6NJcl mice (6-8 weeks, male, CLEA Japan), and compounds were administered once a day, five times a week (intraperitoneal administration). Mice were analyzed 2 weeks after injection. […]
Histological analysis of growth plates chondrocytes. Knee joints were obtained from BMP-7-injected and test compounds-administrated C57BL/6NJcl mice after 2 weeks treatment and fixed, paraffin-embedded, and sectioned and stained with Safranin O. The thickness of the proliferative and hypertrophic zones of the growth plate were measured using ImageJ software on images obtained using a Keyence microscope (Keyence A merica). The proliferative zone was defined as the region with flat chondrocytes stacked in longitudinal columns, and the hypertrophic zone as the region where chondrocytes are enlarged in size and form clusters.
Normal bone µCT. The left legs of mice were obtained from BMP -7-injected and test -compounds administrated C57BL/6NJcl mice after 2 weeks treatment. The region of interest (ROI) included the femur- tibia (entire femur in addition to the part of tibia above tibia/fibular junction). […]
Tests of side effects of direct and indirect mTOR inhibitors. Related

[2] = tested on: ERBB2; conditions: panel of 300 recombinant protein kinases; ref Anastassiadis et al., 2011; cited from earlier work
[3] = tested on: resFOP-iMSCs
From the text: (§1) Generation of ATDC5 stably expressing ACVR1. WT - or FOP-ACVR1 was inserted into doxycycline (Dox)- inducible vector KW111 (Woltjen et al., 2009), which enables us to easily produce stably expressing cell lines utilizing the piggyBac (PB) transposon system from the cabbage looper moth Trichoplusia ni (Ding et al., 2005) (KW111/WT-ACVR1 or KW111/FOP-ACVR1). KW111/WT-ACVR1 or KW111/FOP-ACVR1 and PBaseII plasmid (PB transposase expression vector) ( Matsui et al., 2014 ) were co-transfected into ATDC5 cells by FuGeneHD® (Promega) according to the manufacturer’s protocol, and the neomycin- resistant population (500 µg/mL) was selected. Further selection was performed by selecting a mCherry high positive population (< 5%) after six hours of Dox treatment, sorting it with fluorescent-activated cell sorting (FACS) using AriaII (BD) according to the manufacturer’s protocol, and designating it as ATDC5/WT-ACVR1 or ATDC5/FOP-ACVR1. […]
(§2) HTS campaign and follow-up screens. […] After 3 days incubation, Alkaline Phosphatase activity (ALP) or AlamarBlue activity was measured using Amplite™ Colorimetric Alkaline Phosphatase Assay Kit (AAT Bioquest) or alamarBlue® Cell Viability Reagent (Thermo Fisher Scientific) according to the manufacturer’s protocol, respectively. T h e absorbance at 400 nm (Abs for ALP) or Relative Fluorescent Unit of Ex560/Em590 nm (RFU for AlamarBlue) was measured on POWERSCAN4 (DS Pharma Biomedical) or EnVision® Multilabel Reader (PerkinElmer).
(§3) Inhibitory effects of the screened compounds are given as percent inhibition, which was calculated using the following equation: (1-([Abs of compound] - [Abs of Min])/([Abs of Max] - [Abs of Min]))× 100, where [Abs of Max] and [Abs of Min] are the mean Abs of DMSO control and 1 µM DMH-1, respectively. The Z’ factor, which is widely used as a measure of the assay quality of each plate, was calculated using the following equation: Z’ factor = 1 - 3 × ([SD of Max] + [SD of Min])/([Abs of Max] - [Abs of Min]) (SI Appendix, Fig. […]

[4] = tested on: FOP-iMSCs; conditions: TGF-β3 10 ng/mL, 7 days, 1 nM-1 µM
From the text: as §1, §2, §3

Compound: FC(F)(F)c1ccc(/C=C/c2nc(COc3ccc(CCCCn4ccnn4)cc3)co2)cc1 [TAK 165, mubritinib]
- Bone Mineral Density (normal bone µCT) vs vehicle [1]: n.s.
- Bone volume (normal bone µCT, femur-tibia) vs vehicle [1]: n.s.
- Hypertrophic zone thickness of growth plate vs vehicle [1]: n.s.
- Proliferative zone thickness of growth plate vs vehicle [1]: n.s.
- chondrogenesis of normal chondrocytes (growth plate) [1]: did not impair
- normal skeletal development in vivo [1]: did not impair
- selectivity for ERBB2 [2]: highly selective
- chondrogenesis of resFOP-iMSCs stimulated with Activin-A (GAG) ([3]; Activin-A 100 ng/mL, 7 days, 1 nM-1 µM): suppressed
- effect on FOP cells versus normal cells ([3]; FOP-iMSCs vs resFOP-iMSCs): stronger effects on FOP cells than on normal cells
- chondrogenesis of FOP-iMSCs stimulated with TGF-β3 (GAG) [4]: suppressed
